Measurements published in EPA's ToxRefDB 2.

What was measured:
rabbit = settings: Prenatal developmental toxicity study, himalayan, Oral, Gavage/Intubation, dose end: 19 GD
rat [1] = settings: Subchronic oral toxicity in rodents, wistar, Feed, dose end: 90 day, group: systemic
rat [2] = settings: Chronic toxicity, wistar, Oral, Feed, dose end: 12 month, group: systemic
rat [3] = settings: Carcinogenicity, wistar, Oral, Feed, dose end: 104 week, group: systemic
dog [4] = settings: Subchronic oral toxicity in nonrodent, beagle, Feed, dose end: 90 day, group: systemic, systemic / clinical chemistry / alanine aminotransferase (alt/sgpt) / alanine aminotransferase (alt/sgpt) + systemic / clinical chemistry / …
mouse [5] = settings: Subchronic oral toxicity in rodents, b6c3f1, Feed, dose end: 13 week, group: systemic, systemic / in life observation / mortality / mortality
mouse [6] = settings: Carcinogenicity; b6c3f1; Oral; Feed; dose end: 103 week; group: systemic; systemic / in life observation / clinical signs / alopecia + systemic / in life observation / clinical signs / aggressive behavior
rat [7] = settings: Subchronic oral toxicity in rodents, long evans, Feed, dose end: 96 day, group: systemic, systemic / in life observation / body weight / body weight gain + systemic / in life observation / food consumption / food efficiency
rat [8] = settings: Subchronic inhalation toxicity, long evans, Whole-Body, dose end: 58 day, group: systemic, systemic / in life observation / clinical signs / abnormal movements
rat [9] = settings: Subchronic oral toxicity in rodents, fischer, Feed, dose end: 13 week, group: systemic, systemic / in life observation / body weight / body weight gain
rat [10] = settings: Prenatal developmental toxicity study, fischer, Oral, Gavage/Intubation, dose end: 15 GD
dog [11] = settings: Subchronic oral toxicity in nonrodent, beagle, Feed, dose end: 13 week, group: systemic
mouse [12] = settings: Subchronic oral toxicity in rodents, b6c3f1, Feed, dose end: 90 day, group: systemic
mouse [13] = settings: Combined chronic toxicity/carcinogenicity; b6c3f1; Oral; Feed; dose end: 104 week; group: systemic; systemic / organ weight / kidney / absolute + systemic / organ weight / kidney / relative to body weight + systemic / pathology microscopic…
dog [14] = settings: Chronic toxicity, beagle, Oral, Feed, dose end: 52 week, group: systemic
rat [15] = settings: Combined chronic toxicity/carcinogenicity, fischer, Oral, [Not Specified], dose end: 24 month, group: systemic
dog [16] = settings: Subchronic oral toxicity in nonrodent, beagle, Capsule, dose end: 13 week, group: systemic, systemic / clinical chemistry / creatinine / creatinine + systemic / clinical chemistry / urea nitrogen / urea nitrogen + systemic / in life…
rat [17] = settings: Subchronic oral toxicity in rodents, fischer, Feed, dose end: 90 day, group: systemic, systemic / clinical chemistry / thyroxine (t4) / thyroxine (t4), total + systemic / clinical chemistry / triiodothyronine (t3) / …
rat [18] = settings: Carcinogenicity, fischer, Oral, Feed, dose end: 107 week, group: systemic
mouse [19] = settings: Combined chronic toxicity/carcinogenicity, cd1, Oral, Feed, dose end: 78 week, group: systemic
rat [20] = settings: Combined chronic toxicity/carcinogenicity, sprague dawley, Oral, [Not Specified], dose end: 24 month, group: systemic
mouse [21] = settings: Carcinogenicity, b6c3f1, Oral, Feed, dose end: 112 week, group: systemic
dog [22] = settings: Chronic toxicity; beagle; Oral; Feed; dose end: 12 month; group: systemic; systemic / clinical chemistry / alkaline phosphatase (alp/alk) / alkaline phosphatase (alp/alk) + systemic / in life observation / body …
rat [23] = settings: Subchronic oral toxicity in rodents, sprague dawley, Feed, dose end: 13 week, group: systemic, systemic / clinical chemistry / calcium / calcium + systemic / pathology microscopic / liver / accentuated lobular pattern + systemic / …
mouse [24] = settings: Multigenerational reproductive toxicity study, cd1, Oral, Feed, dose end: 2 generation, group: offspring
[25] = group: developmental, developmental / developmental malformation / bone / [other] + developmental / developmental malformation / bone / fused + developmental / …
[26] = group: developmental, systemic / in life observation / body weight / fetal weight
[27] = group: maternal, systemic / in life observation / body weight / body weight gain
[28] = systemic / pathology microscopic / kidney / hyaline droplet + systemic / pathology microscopic / kidney / protein + systemic / pathology …
[29] = systemic / pathology microscopic / stomach / hyperkeratosis + systemic / pathology microscopic / liver / hypertrophy + systemic / pathology …
[30] = systemic / pathology gross / liver / foci
[31] = systemic / pathology gross / liver / foci + systemic / pathology gross / stomach / thickened + systemic / pathology microscopic / liver / …
[32] = systemic / pathology gross / lymph node / enlarged
[33] = systemic / pathology microscopic / stomach / edema + systemic / pathology microscopic / stomach / hyperkeratosis + systemic / pathology …
[34] = group: developmental, developmental / developmental malformation / bone / full supernumerary + developmental / developmental malformation / bone / incomplete …
[35] = systemic / in life observation / body weight / body weight + systemic / in life observation / body weight / body weight gain + systemic / in…
[36] = systemic / pathology microscopic / kidney / [other] + systemic / pathology microscopic / liver / nuclear alteration + systemic / pathology …
[37] = systemic / clinical chemistry / alanine aminotransferase (alt/sgpt) / alanine aminotransferase (alt/sgpt) + systemic / clinical chemistry / …
[38] = systemic / in life observation / body weight / body weight gain + systemic / pathology microscopic / kidney / pigmentation
[39] = systemic / clinical chemistry / thyroxine (t4) / thyroxine (t4), total + systemic / organ weight / thyroid gland / absolute + systemic / …
[40] = systemic / pathology gross / thyroid gland / mass
[41] = systemic / in life observation / body weight / body weight
[42] = systemic / organ weight / liver / relative to body weight
[43] = systemic / clinical chemistry / cholesterol / cholesterol + systemic / organ weight / liver / absolute + systemic / organ weight / liver / …
[44] = systemic / in life observation / body weight / body weight + systemic / in life observation / clinical signs / alopecia
[45] = systemic / organ weight / kidney / relative to body weight + systemic / organ weight / liver / relative to body weight + systemic / organ …

Compound: [Cu+2].[O-]/N=[N+](\[O-])C1CCCCC1.[O-]/N=[N+](\[O-])C1CCCCC1
- LOAEL (rabbit; [25]): 30 mg/kg/day
- NOAEL (rabbit; [25]): 10 mg/kg/day
- LEL (rabbit; [26]): 10 mg/kg/day
- NEL (rabbit; [26]): < 10 mg/kg/day
- LEL (rabbit; [27]): 10 mg/kg/day
- NEL (rabbit; [27]): < 10 mg/kg/day
- LOAEL (rabbit; group: maternal, systemic / in life observation / body weight / body weight gain + systemic / in life observation / food consumption / food consumption): 30 mg/kg/day
- NOAEL (rabbit; group: maternal, systemic / in life observation / body weight / body weight gain + systemic / in life observation / food consumption / food consumption + …): 10 mg/kg/day
- LOAEL (rat [1]; [28]): 140 mg/kg/day
- NOAEL (rat [1]; [28]): 35 mg/kg/day
- LEL (rat [1]; [29]): 125 mg/kg/day
- NEL (rat [1]; [29]): < 125 mg/kg/day
- LEL (rat [2]; [30]): 6.1 mg/kg/day
- NEL (rat [2]; [30]): < 6.1 mg/kg/day
- LOAEL (rat [2]; [31]): 61 mg/kg/day
- NOAEL (rat [2]; [31]): 18.3 mg/kg/day
- LEL (rat [3]; [32]): 6 mg/kg/day
- NEL (rat [3]; [32]): < 6 mg/kg/day
- LOAEL (rat [3]; [33]): 33 mg/kg/day
- NOAEL (rat [3]; [33]): 6 mg/kg/day
- LEL (dog [4]): 69 mg/kg/day
- LOAEL (dog [4]): 69 mg/kg/day
- NEL (dog [4]): 26 mg/kg/day
- NOAEL (dog [4]): 26 mg/kg/day

Compound: COC(=O)c1ccc(C(=O)OC)cc1 [Dimethyl terephthalate]
- LEL (mouse [5]): 375 mg/kg/day
- LOAEL (mouse [5]): > 3000 mg/kg/day
- NEL (mouse [5]): 262 mg/kg/day
- NOAEL (mouse [5]): ≥ 3000 mg/kg/day
- LEL (mouse [6]): 375 mg/kg/day
- LOAEL (mouse [6]): > 750 mg/kg/day
- NEL (mouse [6]): < 375 mg/kg/day
- NOAEL (mouse [6]): ≥ 750 mg/kg/day
- LEL (rat [7]): 500 mg/kg/day
- LOAEL (rat [7]): > 500 mg/kg/day
- NEL (rat [7]): 250 mg/kg/day
- NOAEL (rat [7]): ≥ 500 mg/kg/day
- LEL (rat [8]): 4 mg/kg/day
- LOAEL (rat [8]): > 4 mg/kg/day
- NEL (rat [8]): 0.7 mg/kg/day
- NOAEL (rat [8]): ≥ 4 mg/kg/day
- LEL (rat [9]): 500 mg/kg/day
- LOAEL (rat [9]): 500 mg/kg/day
- NEL (rat [9]): 250 mg/kg/day
- NOAEL (rat [9]): 250 mg/kg/day

Compound: O=C(O)COc1ccc(Cl)cc1Cl [2,4-Dichlorophenoxyacetic acid]
- LEL (rat [10]; [34]): 75 mg/kg/day
- LOAEL (rat [10]; [34]): 75 mg/kg/day
- NEL (rat [10]; [34]): 25 mg/kg/day
- NOAEL (rat [10]; [34]): 25 mg/kg/day
- LEL (rat [10]; [27]): 75 mg/kg/day
- LOAEL (rat [10]; [27]): 75 mg/kg/day
- NEL (rat [10]; [27]): 25 mg/kg/day
- NOAEL (rat [10]; [27]): 25 mg/kg/day
- LEL (dog [11]; [35]): 0.5 mg/kg/day
- NEL (dog [11]; [35]): < 0.5 mg/kg/day
- NOAEL (dog [11]; [35]): 1 mg/kg/day
- LOAEL (dog [11]; systemic / in life observation / body weight / body weight gain + systemic / clinical chemistry / alanine aminotransferase (alt/sgpt) / …): 3.75 mg/kg/day
- LEL (mouse [12]; systemic / clinical chemistry / thyroxine (t4) / thyroxine (t4), free + systemic / in life observation / food consumption / food consumption): 98.2 mg/kg/day
- LOAEL (mouse [12]; [36]): 293 mg/kg/day
- NEL (mouse [12]; [36]): 14.7 mg/kg/day
- NOAEL (mouse [12]; [36]): 98.2 mg/kg/day
- LEL (mouse [13]): 62.5 mg/kg/day
- LOAEL (mouse [13]): 62.5 mg/kg/day
- NEL (mouse [13]): 5 mg/kg/day
- NOAEL (mouse [13]): 5 mg/kg/day
- LOAEL (dog [14]; [37]): 5 mg/kg/day
- NOAEL (dog [14]; [37]): 1 mg/kg/day
- LEL (dog [14]; [38]): 1 mg/kg/day
- NEL (dog [14]; [38]): < 1 mg/kg/day
- LOAEL (rat [15]; [39]): 73.1 mg/kg/day
- NOAEL (rat [15]; [39]): 4.89 mg/kg/day
- LEL (rat [15]; [40]): 4.89 mg/kg/day
- NEL (rat [15]; [40]): < 4.89 mg/kg/day
- LEL (dog [16]): 3 mg/kg/day
- LOAEL (dog [16]): 3 mg/kg/day
- NEL (dog [16]): 1 mg/kg/day
- NOAEL (dog [16]): 1 mg/kg/day
- LEL (rat [17]): 100 mg/kg/day
- LOAEL (rat [17]): 100 mg/kg/day
- NEL (rat [17]): 15 mg/kg/day
- NOAEL (rat [17]): 15 mg/kg/day

Compound: CCCCOCCOCCOCc1cc2c(cc1CCC)OCO2 [Piperonyl butoxide]
- LEL (rat [18]; [41]): 250 mg/kg/day
- LOAEL (rat [18]; [41]): 500 mg/kg/day
- NEL (rat [18]; [41]): < 250 mg/kg/day
- NOAEL (rat [18]; systemic / in life observation / body weight / body weight + systemic / pathology gross / full gross necropsy / lymphoma nos): 250 mg/kg/day
- LEL (mouse [19]; [42]): 30 mg/kg/day
- NEL (mouse [19]; [42]): < 30 mg/kg/day
- NOAEL (mouse [19]; systemic / organ weight / liver / relative to body weight + systemic / pathology microscopic / liver / adenoma): 30 mg/kg/day
- LOAEL (mouse [19]; systemic / organ weight / liver / relative to body weight + systemic / pathology microscopic / liver / hypertrophy): 100 mg/kg/day
- LOAEL (rat [20]; [43]): 100 mg/kg/day
- NEL (rat [20]; [43]): 15 mg/kg/day
- NOAEL (rat [20]; [43]): 30 mg/kg/day
- LEL (rat [20]; systemic / organ weight / liver / absolute + systemic / organ weight / liver / relative to brain weight + systemic / pathology gross / …): 30 mg/kg/day
- LOAEL (mouse [21]; [41]): 155 mg/kg/day
- NOAEL (mouse [21]; [41]): < 155 mg/kg/day
- LEL (mouse [21]; [44]): 155 mg/kg/day
- NEL (mouse [21]; [44]): < 155 mg/kg/day
- LEL (dog [22]): 15.5 mg/kg/day
- LOAEL (dog [22]): 15.5 mg/kg/day
- NEL (dog [22]): 2.9 mg/kg/day
- NOAEL (dog [22]): 2.9 mg/kg/day

Compound: CCCCCCCCOC(=O)c1ccccc1C(=O)OCCCCCCCC [Dioctyl phthalate]
- LEL (rat [23]): 350 mg/kg/day
- LOAEL (rat [23]): > 350 mg/kg/day
- NEL (rat [23]): 36.8 mg/kg/day
- NOAEL (rat [23]): ≥ 350 mg/kg/day
- NEL (mouse [24]; systemic / organ weight / kidney / relative to body weight + systemic / organ weight / liver / relative to body weight): 3600 mg/kg/day
- LEL (mouse [24]; [45]): 7500 mg/kg/day
- LOAEL (mouse [24]; [45]): > 7500 mg/kg/day
- NOAEL (mouse [24]; [45]): ≥ 7500 mg/kg/day
